Structures are written as SMILES. Where only a bound is given, the exact number is not on record here.

For experiment [1], the target named is Phosphatidylinositol 4,5-bisphosphate 3-kinase catalytic subunit beta isoform (Homo sapiens, UniProt P42338). The experiment can be described thus: Inhibition of PI3Kbeta (unknown origin) expressed in SF21 cells using phosphatidylinositol as substrate after 60 mins by Kinase-Glo assay. (In general: In Kinase-Glo more light means more ATP remaining.)
Experiment [2] deals with Phosphatidylinositol 4,5-bisphosphate 3-kinase catalytic subunit gamma isoform (Homo sapiens, UniProt P48736). The experiment can be described thus: Inhibition of PI3Kgamma (unknown origin) expressed in SF21 cells using phosphatidylinositol as substrate after 60 mins by Kinase-Glo assay.
In experiment [3] the target is T1, Phosphatidylinositol 4,5-bisphosphate 3-kinase catalytic subunit delta isoform (Homo sapiens, UniProt O00329).
T1 sequence (O00329 whole entry): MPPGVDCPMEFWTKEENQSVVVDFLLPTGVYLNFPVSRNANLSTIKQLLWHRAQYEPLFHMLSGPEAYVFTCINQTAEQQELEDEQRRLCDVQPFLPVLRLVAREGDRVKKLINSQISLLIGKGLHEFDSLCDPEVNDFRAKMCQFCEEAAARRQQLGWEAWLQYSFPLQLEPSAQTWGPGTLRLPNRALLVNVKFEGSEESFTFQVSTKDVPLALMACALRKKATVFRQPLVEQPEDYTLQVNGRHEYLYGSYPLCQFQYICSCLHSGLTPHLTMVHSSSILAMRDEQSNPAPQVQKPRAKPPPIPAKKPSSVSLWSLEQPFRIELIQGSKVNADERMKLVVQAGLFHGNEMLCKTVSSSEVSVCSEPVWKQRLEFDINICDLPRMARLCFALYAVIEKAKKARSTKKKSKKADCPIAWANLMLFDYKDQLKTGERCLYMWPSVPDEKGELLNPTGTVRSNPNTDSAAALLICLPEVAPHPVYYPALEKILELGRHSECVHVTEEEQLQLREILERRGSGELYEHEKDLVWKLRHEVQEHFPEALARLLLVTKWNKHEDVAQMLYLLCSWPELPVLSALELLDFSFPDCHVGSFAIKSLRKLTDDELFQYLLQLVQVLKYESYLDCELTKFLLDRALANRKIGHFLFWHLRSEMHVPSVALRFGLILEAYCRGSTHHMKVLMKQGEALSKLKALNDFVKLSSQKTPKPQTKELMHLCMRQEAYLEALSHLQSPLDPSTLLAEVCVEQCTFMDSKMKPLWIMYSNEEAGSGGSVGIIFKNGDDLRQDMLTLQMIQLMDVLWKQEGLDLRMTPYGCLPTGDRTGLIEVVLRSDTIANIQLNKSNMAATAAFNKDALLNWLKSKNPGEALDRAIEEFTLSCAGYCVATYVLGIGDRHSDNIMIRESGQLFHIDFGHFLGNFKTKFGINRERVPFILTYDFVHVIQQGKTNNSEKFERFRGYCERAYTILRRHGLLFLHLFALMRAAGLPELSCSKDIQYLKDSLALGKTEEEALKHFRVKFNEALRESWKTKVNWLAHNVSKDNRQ
The experiment can be described thus: Inhibition of PI3Kdelta (unknown origin) expressed in SF21 cells using phosphatidylinositol as substrate after 60 mins by Kinase-Glo assay.

Experiment [4] concerns the target Phosphatidylinositol 4,5-bisphosphate 3-kinase catalytic subunit alpha isoform (Homo sapiens, UniProt P42336). As to the kind of experiment: Inhibition of PI3Kalpha (unknown origin) expressed in SF21 cells using phosphatidylinositol as substrate after 60 mins by Kinase-Glo assay.

Phosphatidylinositol 4,5-bisphosphate 3-kinase catalytic subunit beta isoform, sequence (P42338 whole entry, canonical isoform): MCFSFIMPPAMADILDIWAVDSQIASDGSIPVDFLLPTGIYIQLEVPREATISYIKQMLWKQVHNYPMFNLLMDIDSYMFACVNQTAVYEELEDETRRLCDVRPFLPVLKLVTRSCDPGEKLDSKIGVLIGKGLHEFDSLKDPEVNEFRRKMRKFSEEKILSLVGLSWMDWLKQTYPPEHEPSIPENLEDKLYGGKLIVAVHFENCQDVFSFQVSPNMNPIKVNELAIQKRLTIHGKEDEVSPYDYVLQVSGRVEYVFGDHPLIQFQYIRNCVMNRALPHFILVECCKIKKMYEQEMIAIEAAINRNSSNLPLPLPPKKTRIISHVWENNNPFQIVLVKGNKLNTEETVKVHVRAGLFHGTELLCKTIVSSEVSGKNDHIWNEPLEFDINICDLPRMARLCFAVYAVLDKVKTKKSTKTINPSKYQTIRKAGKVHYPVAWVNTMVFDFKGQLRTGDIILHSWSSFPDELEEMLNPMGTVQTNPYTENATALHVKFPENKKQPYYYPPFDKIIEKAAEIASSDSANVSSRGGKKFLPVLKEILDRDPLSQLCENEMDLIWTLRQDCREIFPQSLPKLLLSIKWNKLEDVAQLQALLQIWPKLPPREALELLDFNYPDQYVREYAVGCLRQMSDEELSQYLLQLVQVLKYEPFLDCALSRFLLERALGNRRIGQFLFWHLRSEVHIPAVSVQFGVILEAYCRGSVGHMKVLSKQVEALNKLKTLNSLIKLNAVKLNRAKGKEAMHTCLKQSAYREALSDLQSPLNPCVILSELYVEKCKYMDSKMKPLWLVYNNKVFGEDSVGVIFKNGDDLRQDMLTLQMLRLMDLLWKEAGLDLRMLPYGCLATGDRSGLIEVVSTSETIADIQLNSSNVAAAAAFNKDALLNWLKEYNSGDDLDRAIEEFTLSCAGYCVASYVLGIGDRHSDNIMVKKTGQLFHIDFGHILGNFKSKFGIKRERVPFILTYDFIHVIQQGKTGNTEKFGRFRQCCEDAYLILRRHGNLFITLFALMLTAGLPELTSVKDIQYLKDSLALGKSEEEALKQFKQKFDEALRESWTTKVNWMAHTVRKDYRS
Phosphatidylinositol 4,5-bisphosphate 3-kinase catalytic subunit alpha isoform, sequence (P42336 whole entry, canonical isoform): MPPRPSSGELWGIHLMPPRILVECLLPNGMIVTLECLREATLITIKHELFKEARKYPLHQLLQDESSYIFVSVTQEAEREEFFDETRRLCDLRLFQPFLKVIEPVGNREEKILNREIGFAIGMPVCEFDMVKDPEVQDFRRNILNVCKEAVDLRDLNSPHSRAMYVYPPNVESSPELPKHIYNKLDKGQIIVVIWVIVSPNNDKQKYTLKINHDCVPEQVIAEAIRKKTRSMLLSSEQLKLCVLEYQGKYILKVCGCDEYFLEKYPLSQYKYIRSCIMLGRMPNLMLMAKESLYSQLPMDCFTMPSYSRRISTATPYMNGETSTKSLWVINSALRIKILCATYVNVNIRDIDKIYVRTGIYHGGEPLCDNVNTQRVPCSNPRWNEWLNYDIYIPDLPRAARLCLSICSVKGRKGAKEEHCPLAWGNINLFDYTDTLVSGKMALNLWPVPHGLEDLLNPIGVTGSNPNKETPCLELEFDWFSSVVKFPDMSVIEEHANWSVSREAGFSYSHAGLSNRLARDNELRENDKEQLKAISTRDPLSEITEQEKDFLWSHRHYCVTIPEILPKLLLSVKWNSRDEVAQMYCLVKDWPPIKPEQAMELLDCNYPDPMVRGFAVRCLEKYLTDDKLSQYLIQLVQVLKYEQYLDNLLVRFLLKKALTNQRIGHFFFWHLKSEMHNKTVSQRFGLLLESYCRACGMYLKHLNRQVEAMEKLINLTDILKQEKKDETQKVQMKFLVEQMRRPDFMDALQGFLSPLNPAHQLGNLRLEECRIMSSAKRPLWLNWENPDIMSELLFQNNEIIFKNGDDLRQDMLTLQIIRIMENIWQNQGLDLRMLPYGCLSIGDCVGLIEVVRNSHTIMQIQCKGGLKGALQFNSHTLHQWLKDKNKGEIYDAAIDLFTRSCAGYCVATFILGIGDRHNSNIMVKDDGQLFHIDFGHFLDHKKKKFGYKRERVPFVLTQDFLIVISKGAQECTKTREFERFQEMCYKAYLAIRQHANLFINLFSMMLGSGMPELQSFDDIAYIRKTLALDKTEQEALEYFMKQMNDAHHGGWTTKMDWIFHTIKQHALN
Phosphatidylinositol 4,5-bisphosphate 3-kinase catalytic subunit gamma isoform, sequence (P48736 whole entry, canonical isoform): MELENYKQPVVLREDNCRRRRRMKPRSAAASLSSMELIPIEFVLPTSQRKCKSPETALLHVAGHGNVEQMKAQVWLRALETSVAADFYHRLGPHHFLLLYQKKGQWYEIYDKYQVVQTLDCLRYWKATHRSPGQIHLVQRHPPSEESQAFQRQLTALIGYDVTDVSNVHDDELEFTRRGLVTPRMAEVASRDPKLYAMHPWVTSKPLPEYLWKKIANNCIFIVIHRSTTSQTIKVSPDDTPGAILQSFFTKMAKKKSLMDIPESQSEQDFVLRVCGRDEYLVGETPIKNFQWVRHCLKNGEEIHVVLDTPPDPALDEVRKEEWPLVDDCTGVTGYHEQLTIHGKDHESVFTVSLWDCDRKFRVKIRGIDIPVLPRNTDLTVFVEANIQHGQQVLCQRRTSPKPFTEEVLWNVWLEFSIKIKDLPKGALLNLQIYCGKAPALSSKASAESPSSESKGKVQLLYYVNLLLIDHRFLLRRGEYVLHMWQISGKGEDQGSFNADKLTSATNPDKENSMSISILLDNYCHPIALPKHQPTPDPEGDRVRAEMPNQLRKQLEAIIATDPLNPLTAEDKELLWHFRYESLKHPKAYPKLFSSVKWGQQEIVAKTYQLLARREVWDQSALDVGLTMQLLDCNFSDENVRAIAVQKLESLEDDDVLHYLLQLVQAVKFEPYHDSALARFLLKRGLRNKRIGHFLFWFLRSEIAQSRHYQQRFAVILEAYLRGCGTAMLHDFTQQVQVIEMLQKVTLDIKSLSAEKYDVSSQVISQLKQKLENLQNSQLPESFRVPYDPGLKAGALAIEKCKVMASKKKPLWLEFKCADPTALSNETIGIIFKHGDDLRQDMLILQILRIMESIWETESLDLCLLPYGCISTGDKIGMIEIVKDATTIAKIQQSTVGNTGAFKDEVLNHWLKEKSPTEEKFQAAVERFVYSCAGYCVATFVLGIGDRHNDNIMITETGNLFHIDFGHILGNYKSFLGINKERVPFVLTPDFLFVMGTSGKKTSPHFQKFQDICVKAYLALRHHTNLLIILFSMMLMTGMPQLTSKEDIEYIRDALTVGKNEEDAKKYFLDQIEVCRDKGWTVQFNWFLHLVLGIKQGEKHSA

As for `Cc1nc2ccccc2n1-c1nc(N2CCOCC2)nc(N2CCOCC2)n1`, the half-inhibitory concentration (IC50) in experiment [1] was 523 nM; in experiment [2], 1860 nM; in experiment [3] it was 187 nM; in experiment [4], 290 nM.

Regarding `COc1ccc2c(c1)nc(C(F)F)n2-c1nc(N2CCOCC2)nc(N2CCOCC2)n1`, the IC50 was above 10000 nM in experiment [1], above 10000 nM in experiment [2], above 1000 nM in experiment [3] and above 5000 nM in experiment [4].

As for `COc1ccc2nc(C(F)F)n(-c3nc(N4CCOCC4)nc(N4CCOCC4)n3)c2c1`, the IC50 in experiment [1] is 214 nM; in experiment [2], above 10000 nM; in experiment [3], 110 nM; in experiment [4] it was 375 nM.

With `COc1ccc2c(c1)nc(C)n2-c1nc(N2CCOCC2)nc(N2CCOCC2)n1`, the IC50 is above 10000 nM in experiment [1], above 10000 nM in experiment [2], 2770 nM in experiment [3] and 9200 nM in experiment [4].

For the compound `COc1ccc2nc(C)n(-c3nc(N4CCOCC4)nc(N4CCOCC4)n3)c2c1`, the IC50 in experiment [1] is 1790 nM; in experiment [2] it was above 10000 nM; in experiment [3], 458 nM; in experiment [4], 823 nM.

As for `CC(C)c1nc2ccccc2n1-c1nc(N2CCOCC2)nc(N2CCOCC2)n1`, the IC50 in experiment [1] came out at 419 nM; in experiment [2], 2530 nM; in experiment [3], 128 nM; in experiment [4], 431 nM.

Turning to `COc1ccc2c(c1)nc(C(C)C)n2-c1nc(N2CCOCC2)nc(N2CCOCC2)n1`, the IC50 is above 10000 nM in experiment [1], above 10000 nM in experiment [2], 1120 nM in experiment [3] and above 10000 nM in experiment [4].

As for `COc1ccc2nc(C(C)C)n(-c3nc(N4CCOCC4)nc(N4CCOCC4)n3)c2c1`, the IC50 in experiment [1] is 726 nM; in experiment [2], above 10000 nM; in experiment [3], 423 nM; in experiment [4], 1050 nM.

As usually defined, the IC50 is the midpoint of a concentration-inhibition curve. Low values mean inhibition by little substance, high ones a need for much substance.

The values are drawn from ChEMBL document CHEMBL2321769, “Regioselective synthesis of 5- and 6-methoxybenzimidazole-1,3,5-triazines as inhibitors of phosphoinositide 3-kinase” (Bioorg Med Chem Lett, 2013).
